Data: the supplement of paper PMC10307832

Legend:
Assay in all cases: relative viability (nuclei count vs DMSO), 5 days (fraction); higher = more cells survive
[1] = compound: C[C@]1(O)C[C@@H](c2nc(-c3ccc4ccc(-c5ccccc5)nc4c3)c3c(N)nccn32)C1 [Linsitinib] + Cc1nc(Nc2ncc(C(=O)Nc3c(C)cccc3Cl)s2)cc(N2CCN(CCO)CC2)n1 [Dasatinib] (partner 0.075 µM)
Summary of the method: (§1)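 Cells from lung cancer lines were seeded into 1536-well plates and, one day later, dosed by pin tool. Treatments were either a single drug or a fixed dose of an anchor drug with five library-drug doses (not always all listed) in √10 steps. After 5 days, nuclei were stained in a one-step fixation (final 0.05% Triton X-100, 1% formaldehyde, 1 ug/ml Hoechst) and counted on 4× images, and relative viability is the treated-to-vehicle nuclei ratio, as the median of duplicate plates.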

[2] = compound: Cc1ccc(C(=O)N(CCCN)[C@@H](c2nc3cc(Cl)ccc3c(=O)n2Cc2ccccc2)C(C)C)cc1 [Ispinesib] + Cc1nc(NC(=O)N2CCC[C@H]2C(N)=O)sc1-c1ccnc(C(C)(C)C(F)(F)F)c1 [Alpelisib] (partner 2 µM)
Summary of the method: as §1

[3] = compound: Cc1ccc(C(=O)N(CCCN)[C@@H](c2nc3cc(Cl)ccc3c(=O)n2Cc2ccccc2)C(C)C)cc1 [Ispinesib] + CCNC(=O)c1noc(-c2cc(C(C)C)c(O)cc2O)c1-c1ccc(CN2CCOCC2)cc1 [Luminespib] (partner 0.01 µM)
Summary of the method: as §1

[4] = compound: C[C@]1(O)C[C@@H](c2nc(-c3ccc4ccc(-c5ccccc5)nc4c3)c3c(N)nccn32)C1 [Linsitinib] + Cc1cc(Nc2cc(N3CCN(C)CC3)nc(Sc3ccc(NC(=O)C4CC4)cc3)n2)n[nH]1 [Tozasertib] (partner 0.1 µM)
Summary of the method: as §1

Cell Line	relative viability ([1]; first compound 0.03162 µM)	relative viability ([1]; first compound 0.1 µM)	relative viability ([1]; first compound 0.3162 µM)	relative viability ([1]; first compound 1 µM)	relative viability ([2]; first compound 0.001 µM)	relative viability ([2]; first compound 0.003162 µM)	relative viability ([2]; first compound 0.01 µM)	relative viability ([2]; first compound 0.03162 µM)	relative viability ([2]; first compound 0.1 µM)	relative viability ([3]; first compound 0.001 µM)	relative viability ([3]; first compound 0.003162 µM)	relative viability ([3]; first compound 0.01 µM)	relative viability ([3]; first compound 0.03162 µM)	relative viability ([3]; first compound 0.1 µM)	relative viability ([1]; first compound 0.01 µM)	relative viability ([4]; first compound 0.01 µM)	relative viability ([4]; first compound 0.03162 µM)	relative viability ([4]; first compound 0.1 µM)	relative viability ([4]; first compound 0.3162 µM)	relative viability ([4]; first compound 1 µM)
NCI-H1792	0.927	0.771	0.529	0.215	0.838	0.68	0.692	0.393	0.44	0.821	0.435	0.705	0.443	0.471						
NCI-H1651	0.386	0.416	0.251	0.301	0.957	0.99	1.26	1.05	0.206	0.989	0.88	0.859	1.23	0.404	0.343	0.619	0.646	0.714	0.484	0.513
A549					0.655	0.761	1.08	0.0901	0.0827											
HCC-366	0.606	0.488	0.543	0.174	0.733	0.393	0.535	0.47	0.135						0.644	0.108	0.147	0.187	0.0897	0.0876
EKVX	0.625	0.532	0.513	0.5	0.978	0.879	0.923	0.944	0.273	0.837	0.875	0.937	0.829	0.563	0.603	0.362	0.385	0.493	0.214	0.352
NCI-H1993	0.584	0.509	0.738	0.475	0.697	0.637	0.709	0.663	0.596	0.801	0.45	1.01	0.821	0.634	0.645	0.561	0.606	0.619	0.579	0.602
NCI-H2342	0.306	0.306	0.353	0.298						0.746	0.768	0.698	0.703	0.592	0.307	0.554	0.54	0.516	0.651	0.412
NCI-H1703					0.352	0.322	0.224	0.0938	0.135											
NCI-H23	0.807	0.571	0.415	0.366	0.547	0.679	0.785	0.731	0.459	0.205	0.202	0.199	0.195	0.197	0.837	0.365	0.485	0.372	0.437	0.331
HCC-827	0.389	0.311	0.597	0.423	0.91	1	0.981	0.922	0.814	0.69	0.536	0.876	0.482	0.529	0.398	0.43	0.426	0.433		0.393
PC-3 [JPC-3]	0.912	1.06	0.991	0.98	0.992	1.09	1.07	1.06	1.11	0.716	0.853	0.75	0.748	0.548	1	0.87	0.911	0.904	0.777	0.793
NCI-H1355	0.68	0.518	0.525	0.254	0.841	0.866	0.979	0.596	0.859	0.702	0.729	0.881	0.598	0.488	0.627	0.584	0.576	0.475	0.458	0.428
NCI-H727	0.274	0.372	0.252	0.252		0.565	0.545	0.486	0.404	0.244	0.284	0.349	0.0037	0.308	0.421	0.643	0.67	0.689	0.623	0.523
IA-LM					0.742	0.904	1.09	0.11	0.158											
NCI-H1975	0.349	0.331	0.241	0.235	0.738	0.672	0.666	0.332	0.226	0.231	0.217	0.21	0.351	0.198	0.37	0.691	0.677	0.865	0.665	0.311
NCI-H522	1.03	0.902		0.86						1.02	1.1	1.17	0.922	1.11	0.829	0.525	0.516	0.521		0.514
SW 900	0.739	0.85	0.319	0.322						0.206	0.171	0.164	0.183	0.19	0.537	0.635	0.598	0.535	0.513	0.342
NCI-H1563	0.485	0.384	0.812	0.378	0.972	0.949	0.944	0.838	0.705	0.506	0.462	0.523	0.523	0.55	0.47					
NCI-H1648																0.5	0.697	0.412		0.396
ChaGo-K-1	0.5	0.588	0.415	0.588						0.727	0.712	0.82	0.639	0.492	0.649	0.208	0.184	0.221	0.227	0.2
Calu-6					1.04	0.901	0.551	0.134	0.145											
NCI-H1299					1.11	1.09	1.15	1.17	0.449											
EBC-1					0.77	0.861	0.931	0.244	0.274											
